Data taken from PubChem BioAssay (NCI).
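All cell lines were grown in 96-well plates and treated with compound for 48 hours. The concentration for full growth arrest is given as TGI.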

Tests used:
Assay in all cases: NCI tumour cell line growth inhibition, 48 h
M14 melanoma = tested on: M14 melanoma
SW-620 colon = tested on: SW-620 colon
NCI-H23 lung = tested on: NCI-H23 lung
SNB-75 CNS = tested on: SNB-75 CNS
SF-295 CNS = tested on: SF-295 CNS
SF-268 CNS = tested on: SF-268 CNS
K-562 leukemia = tested on: K-562 leukemia
A549 NSCLC = tested on: A549 NSCLC
HL-60(TB) leukemia = tested on: HL-60(TB) leukemia
OVCAR-8 ovarian = tested on: OVCAR-8 ovarian
HOP-62 NSCLC = tested on: HOP-62 NSCLC
OVCAR-4 ovarian = tested on: OVCAR-4 ovarian
MALME-3M melanoma = tested on: MALME-3M melanoma
NCI-H226 lung = tested on: NCI-H226 lung
U251 CNS = tested on: U251 CNS
NCI/ADR-RES ovarian = tested on: NCI/ADR-RES ovarian

Measured: TGI

COc1cc2c(cc1O)[C@H](C)C(c1ccc(OC)c(OC)c1)O2 (stereo partly specified)
13.7 µM: HL-60(TB) leukemia
28.1 µM: NCI-H23 lung
17.4 µM: K-562 leukemia
64.6 µM: NCI-H226 lung
11.7 µM: SNB-75 CNS
22.8 µM: MALME-3M melanoma
26.2 µM: OVCAR-4 ovarian
37.8 µM: U251 CNS
35.1 µM: OVCAR-8 ovarian
15.9 µM: M14 melanoma
19.4 µM: SW-620 colon
> 100 µM: SF-295 CNS | SF-268 CNS | A549 NSCLC | HOP-62 NSCLC

CCCC/C=C/C=C/C=C/CCCCCCCC(=O)OCC(COC(=O)CCCCCCC/C=C/C1C=CC(CCCC)C(C(=O)O)C1C(=O)O)OC(=O)CCCCCCC/C=C/C=C/C=C/CCCC (stereo unspecified) (tested in a mixture with another compound)
36.7 µM: SNB-75 CNS
44.2 µM: K-562 leukemia
41.1 µM: HL-60(TB) leukemia
18 µM: SW-620 colon
29.7 µM: M14 melanoma
34.7 µM: OVCAR-4 ovarian
36.1 µM: SF-268 CNS
38.6 µM: HOP-62 NSCLC
37.1 µM: A549 NSCLC
44.5 µM: OVCAR-8 ovarian
40.3 µM: NCI-H23 lung
35.8 µM: SF-295 CNS | MALME-3M melanoma | NCI-H226 lung

COc1ccc(C2Oc3cc(OC)c(OC)cc3C2CCl)cc1OC (stereo unspecified)
> 100 µM: M14 melanoma | SW-620 colon | SNB-75 CNS | SF-268 CNS | K-562 leukemia | A549 NSCLC | HL-60(TB) leukemia | OVCAR-8 ovarian | HOP-62 NSCLC | OVCAR-4 ovarian | MALME-3M melanoma | NCI-H226 lung | U251 CNS

O=c1[nH]c2cc(Cl)ccc2nc1/C(=N\Nc1ccccc1)C(O)c1ccc(Cl)c(Cl)c1 (stereo unspecified)
> 100 µM: M14 melanoma | SW-620 colon | NCI-H23 lung | SNB-75 CNS | SF-295 CNS | SF-268 CNS | K-562 leukemia | A549 NSCLC | HL-60(TB) leukemia | OVCAR-8 ovarian | HOP-62 NSCLC | OVCAR-4 ovarian | MALME-3M melanoma | NCI-H226 lung | U251 CNS

COc1cc(C2C(Cl)C(=O)N2n2cnc3ccccc3c2=O)ccc1O (stereo unspecified)
> 100 µM: M14 melanoma | SW-620 colon | NCI-H23 lung | SNB-75 CNS | SF-295 CNS | SF-268 CNS | A549 NSCLC | OVCAR-8 ovarian | HOP-62 NSCLC | OVCAR-4 ovarian | MALME-3M melanoma | NCI-H226 lung | U251 CNS

CNC(=O)NCCCC(NC(C)=O)C(=O)NCc1ccccc1 (stereo unspecified)
> 100 µM: M14 melanoma | SW-620 colon | NCI-H23 lung | SNB-75 CNS | SF-295 CNS | SF-268 CNS | K-562 leukemia | A549 NSCLC | OVCAR-8 ovarian | HOP-62 NSCLC | OVCAR-4 ovarian | MALME-3M melanoma | NCI-H226 lung | U251 CNS

COCCOCOC(CCCCO)c1cc(C)c(O[Si](C)(C)C(C)(C)C)c(C)c1 (stereo unspecified)
23.9 µM: SNB-75 CNS
16.1 µM: A549 NSCLC
18.7 µM: NCI-H23 lung | OVCAR-8 ovarian
23.6 µM: U251 CNS
13.3 µM: MALME-3M melanoma
6.02 µM: HL-60(TB) leukemia
21.1 µM: SW-620 colon
16.3 µM: SF-295 CNS | K-562 leukemia
20.4 µM: SF-268 CNS
23 µM: HOP-62 NSCLC
23.1 µM: M14 melanoma
10.3 µM: NCI-H226 lung

CCNC(=O)c1ccc(C)c(N=NN(C)C)c1
> 100 µM: M14 melanoma | SW-620 colon | NCI-H23 lung | SF-295 CNS | SF-268 CNS | A549 NSCLC | OVCAR-8 ovarian | HOP-62 NSCLC | OVCAR-4 ovarian | U251 CNS

O=C(Nc1c(O)[nH]c(=S)[nH]c1=O)c1ccccc1
> 100 µM: M14 melanoma | SW-620 colon | NCI-H23 lung | SNB-75 CNS | SF-295 CNS | SF-268 CNS | K-562 leukemia | A549 NSCLC | HL-60(TB) leukemia | OVCAR-8 ovarian | HOP-62 NSCLC | OVCAR-4 ovarian | MALME-3M melanoma | NCI-H226 lung | U251 CNS

CC1(C)[C@@H](Cn2cc(I)c(=O)[nH]c2=O)CC[C@@]1(C)CO
> 100 µM: M14 melanoma | SW-620 colon | SNB-75 CNS | SF-295 CNS | SF-268 CNS | K-562 leukemia | A549 NSCLC | HOP-62 NSCLC | OVCAR-4 ovarian | NCI/ADR-RES ovarian | NCI-H226 lung | U251 CNS

S=P1(Oc2ccccc2)NNP2(=NP(N3CC3)(N3CC3)=NP(N3CC3)(N3CC3)=N2)NN1 (stereo unspecified)
> 100 µM: SW-620 colon | NCI-H23 lung | SNB-75 CNS | SF-268 CNS | K-562 leukemia | A549 NSCLC | HL-60(TB) leukemia | OVCAR-8 ovarian | HOP-62 NSCLC | OVCAR-4 ovarian | MALME-3M melanoma | NCI-H226 lung | U251 CNS

C/C(CN1C(=O)c2ccccc2C1=O)=N\NS(=O)(=O)c1ccc(Cl)cc1
> 100 µM: M14 melanoma | SW-620 colon | NCI-H23 lung | SNB-75 CNS | SF-295 CNS | K-562 leukemia | A549 NSCLC | HL-60(TB) leukemia | OVCAR-8 ovarian | HOP-62 NSCLC | OVCAR-4 ovarian | MALME-3M melanoma | NCI-H226 lung | U251 CNS

CCn1cnc2c(=S)nc(N)[nH]c21
> 100 µM: M14 melanoma | SW-620 colon | NCI-H23 lung | SNB-75 CNS | SF-295 CNS | SF-268 CNS | K-562 leukemia | A549 NSCLC | HL-60(TB) leukemia | OVCAR-8 ovarian | HOP-62 NSCLC | MALME-3M melanoma | NCI-H226 lung | U251 CNS
